From US20110245335A1, “NEW INHIBITORS FOR TREATING DISEASES ASSOCIATED WITH AN EXCESS TRANSPORT OF HYALURONAN” (priority 2008, published 2011)

How the values were obtained:
[1] = system: hyaluronan export; assay: Assay for hyaluronan transport/export inhibitors in fibroblast cell culture (hyaluronan in culture medium by ELISA); assay type: cell-based; conditions: 2 days at 37° C.
Experimental: Trypsinised fibroblasts were suspended in Dulbeccós medium at 10^5 cells/ml and 100 μl aliquots were transferred to a 96 well microtiter plate. The first row received 200 μl of the suspension and 20 μl of the inhibitors of the invention dissolved in phosphate buffered saline at concentrations of 4 mM. A serial dilution of the inhibitors was established by transfer of 100 μl aliquots from the first row to the following rows. All experiments were performed in duplicates. […] The cells were incubated for 2 days at 37° C. and aliquots (5 and 20 μl) of the culture medium were used for measurement of the hyaluronan concentration in the cell culture medium by an ELISA [125]. Briefly, the wells of a 96 well Covalink-NH-microtiter plate (NUNC) were coated with 100 μl of a mixture of […] of hyaluronan (Healon®), 9.2 μg/ml of N-Hydroxysuccinimide-3-sulfonic acid and 615 μl/ml of 1-ethyl-3-(3-dimethylaminopropyl)-carbodiimide for 2 hours at room temperature and overnight at 4° C. The wells were washed three times with 2 M NaCl, 41 mM MgSO4, 0.05% Tween-20 in 50 mM phosphate buffered saline pH 7.2 (buffer A) and once with 2 M NaCl, 41 mM MgSO4, in phosphate buffered saline pH 7.2. Additional binding sites were blocked by incubation with 300 μl of 0.5% bovine serum albumin in phosphate buffered saline for 30 min at 37° C. Calibration of the assay was performed with standard concentrations of hyaluronan ranging from 15 ng/ml to 6000 ng/ml in equal volumes of culture medium as used for measurement of the cellular supernatants. A solution (50 μl) of the biotinylated hyaluronan binding fragment of aggrecan (Calbiochem) in 1.5 M NaCl, 0.3 M guanidinium hydrochloride, 0.08% bovine serum albumin 0.02% NaN3 25 mM phosphate buffer pH 7.0 was preincubated with 50 μl of the standard hyaluronan solutions or cellular supernatants for 1 hour at 37° C. The mixtures were transferred to the hyaluronan-coated test plate and incubated for 1 hour at 37° C. The microtiter plate was washed three times with buffer A and incubated with 100 μl/well of a solution of streptavidin-horseraddish-peroxidase (Amersham) at a dilution of 1:100 in phosphate buffered saline, 0.1% Tween-20 for 30 min at room temperature. The plate was washed five times with buffer A and the colour was developed by incubation with a 100 μl/well of a solution of 5 mg o-phenylenediamine and 5 μl 30% H2O2 in 10 ml of 0.1 M citrate-phosphate buffer pH 5.3 for 25 min at room temperature. The adsorption was read at 490 nm. The concentrations in the samples were calculated from a logarithmic regression curve of the hyaluronan standard solutions.

[2] = pKa of the acidic moiety (stated in design rationale, no method); assay type: physicochemical; conditions: approximate values given in design rationale; no method described; read-out: pKa of the carboxylic moiety or its replacement
[3] = system: II-1α activated bovine cartilage explants; conditions: ref [14]; cited from earlier work

Compound | pKa [2] | IC50 ([1]; Fibroblast, 48 h) [µM] | other results
CC(=O)Nc1c(O)cc(O)cc1Oc1ccc(NC/C=C/c2ccccc2)cc1C(=O)O [Compound 96] |  | 10 | 
CCCOc1ccccc1-c1nc2nn[nH]c2c(=O)[nH]1 [zaprinast] |  |  | infiltration of degrading enzymes [3]: reduced; proteoglycan content and collagen degradation [3]: normalized
CC(=O)Nc1c(O)cc(O)cc1Oc1cccc(N(C)C)c1C(=O)O [Compound 98] |  | 200 | 

More lines, main results first:

pKa [2] | Compound | IC50 ([1]; Fibroblast, 48 h) [µM] | other results
~8 | CC(=O)Nc1c(O)cccc1Oc1ccccc1C(=O)NO [Compound 97] |  | IC50 ([1]; listed as No. 97): 30 µM
~1 | CC(=O)Nc1c(O)cc(O)cc1Oc1ccc(Cl)cc1S(=O)(=O)O [Compound 99] | ~80 | 
~3 | CC(=O)Nc1ccccc1Oc1cccc(O)c1C(=O)O [Compound 86] |  | IC50 for hyaluronan export [1]: no inhibitory activity
